# Read-outs that look alike come from different tables or passages of the source.
# Legend:
# Assay in all cases: radioligand binding assay
# [1] = biological target: T1, human recombinant vasopressin V1a receptor (Homo sapiens, UniProt P37288); details: read-out: Bingding Assy (IC50; nmol/mL) / V1a
# T1 construct: gene AVPR1A; full-length recombinant receptor in 1321N1 host cells (PerkinElmer)
# Excerpt: (§1) radioligand binding assay on human recombinant vasopressin V1a receptor
# [2] = biological target: T2, human recombinant vasopressin V2 receptor (Homo sapiens, UniProt P30518); type: cell-based; details: read-out: Bingding Assy (IC50; nmol/mL) / V2
# T2 construct: gene AVPR2; full-length recombinant receptor in 1321N1 host cells (PerkinElmer)
# Excerpt: (§2) radioligand binding assay on human recombinant vasopressin V2 receptor
# [3] = biological target: T1, human recombinant vasopressin V1a receptor; type: cell-based; details: read-out: Bingding Assy (IC50; nmol/mL) / V1a
# Excerpt: as §1
# [4] = biological target: T2, human recombinant vasopressin V2 receptor; details: read-out: Bingding Assy (IC50; nmol/mL) / V2
# Excerpt: as §2
# T2 sequence (P30518 whole entry): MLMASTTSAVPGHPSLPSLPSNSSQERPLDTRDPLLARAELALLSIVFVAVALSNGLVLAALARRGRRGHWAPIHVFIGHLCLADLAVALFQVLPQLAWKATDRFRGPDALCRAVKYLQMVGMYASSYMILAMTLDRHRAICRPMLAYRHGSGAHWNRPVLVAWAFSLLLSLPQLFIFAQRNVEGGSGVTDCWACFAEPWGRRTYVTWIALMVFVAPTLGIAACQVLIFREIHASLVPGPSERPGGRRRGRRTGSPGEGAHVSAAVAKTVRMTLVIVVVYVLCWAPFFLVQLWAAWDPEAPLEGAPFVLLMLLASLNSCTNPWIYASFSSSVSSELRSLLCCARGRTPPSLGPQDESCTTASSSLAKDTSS
# T1 sequence (P37288 whole entry): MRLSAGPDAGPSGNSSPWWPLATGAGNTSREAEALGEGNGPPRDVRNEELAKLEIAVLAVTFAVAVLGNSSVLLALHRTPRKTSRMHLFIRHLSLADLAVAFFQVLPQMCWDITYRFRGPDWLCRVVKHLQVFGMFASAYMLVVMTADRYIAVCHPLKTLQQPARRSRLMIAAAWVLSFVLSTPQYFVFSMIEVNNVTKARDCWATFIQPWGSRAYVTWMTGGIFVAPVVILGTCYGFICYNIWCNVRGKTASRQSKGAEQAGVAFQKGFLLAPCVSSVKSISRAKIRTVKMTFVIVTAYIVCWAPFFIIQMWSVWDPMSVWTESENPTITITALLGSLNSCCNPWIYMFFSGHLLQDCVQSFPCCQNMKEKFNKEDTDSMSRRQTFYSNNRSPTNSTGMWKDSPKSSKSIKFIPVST
Compound,IC50 [1] [nmol/mL],IC50 [2] [nmol/mL],IC50 [3] [nmol/mL],IC50 [4] [nmol/mL]
CCCC(=O)Nc1ccc(C(=O)N2CCC(=C3c4ccc(Cl)cc4CCc4cccnc43)CC2)cc1 [1b],> 1000,47,–,–
"O=C(CCCCl)Nc1ccc(C(=O)N2CCC(=C3c4ccc(Cl)cc4CCc4cccnc43)CC2)cc1 [1c, 4-Chloro-N-(4-(4-(8-chloro-5H-benzo[5,6]cyclohepta[1,2-b]pyridin-11(6H)-ylidene)piperidine-1-carbonyl)phenyl)butanamide]",> 1000,25,–,–
"CCS(=O)(=O)Nc1ccc(C(=O)N2CCC(=C3c4ccc(Cl)cc4CCc4cccnc43)CC2)cc1 [1d, N-(4-(4-(8-Chloro-5H-benzo[5,6]cyclohepta[1,2-b]pyridin-11(6H)-ylidene)piperidine-1-carbonyl)phenyl)ethanesulfonamide]",92,–,–,–
"CCCC(=O)Nc1cccc(S(=O)(=O)N2CCC(=C3c4ccc(Cl)cc4CCc4cccnc43)CC2)c1 [1e, N-(3-((4-(8-Chloro-5H-benzo[5,6]cyclohepta[1,2-b]pyridin-11(6H)-ylidene)piperidin-1-yl)sulfonyl)phenyl)butyramide]",176,26,–,–
"CCCC(=O)Nc1ccc(S(=O)(=O)N2CCC(=C3c4ccc(Cl)cc4CCc4cccnc43)CC2)cc1 [1f, N-(4-((4-(8-Chloro-5H-benzo[5,6]cyclohepta[1,2-b]pyridin-11(6H)-ylidene)piperidin-1-yl)sulfonyl)phenyl)butyramide]",480,40,–,–
"Cc1ccc(S(=O)(=O)Nc2ccc(C(=O)N3CCC(=C4c5ccc(Cl)cc5CCc5cccnc54)CC3)cc2)cc1 [1q, N-(4-(4-(8-Chloro-5H-benzo[5,6]cyclohepta[1,2-b]pyridin-11(6H)-ylidene)piperidine-1-carbonyl)phenyl)-4-methylbenzenesulfonamide]",–,24,720,–
"O=C(c1ccc(NS(=O)(=O)c2ccccc2Cl)cc1)N1CCC(=C2c3ccc(Cl)cc3CCc3cccnc32)CC1 [1r, 2-Chloro-N-(4-(4-(8-chloro-5H-benzo[5,6]cyclohepta[1,2-b]pyridin-11(6H)-ylidene)piperidine-1-carbonyl)phenyl)benzenesulfonamide]",–,–,830,–
"O=C(c1ccc(NS(=O)(=O)c2cc(Cl)ccc2Cl)cc1)N1CCC(=C2c3ccc(Cl)cc3CCc3cccnc32)CC1 [1s, 2,5-Dichloro-N-(4-(4-(8-chloro-5H-benzo[5,6]cyclohepta[1,2-b]pyridin-11(6H)-ylidene)piperidine-1-carbonyl)phenyl)benzenesulfonamide]",–,–,320,–
"O=C(Nc1cccc(S(=O)(=O)N2CCC(=C3c4ccc(Cl)cc4CCc4cccnc43)CC2)c1)c1ccccc1 [1t, N-(3-((4-(8-Chloro-5H-benzo[5,6]cyclohepta[1,2-b]pyridin-11(6H)-ylidene)piperidin-1-yl)sulfonyl)phenyl)benzamide]",–,–,> 1000,–
"O=C(Nc1cccc(S(=O)(=O)N2CCC(=C3c4ccc(Cl)cc4CCc4cccnc43)CC2)c1)c1cccc(Cl)c1 [1u, 3-Chloro-N-(3-((4-(8-chloro-5H-benzo[5,6]cyclohepta[1,2-b]pyridin-11(6H)-ylidene)piperidin-1-yl)-sulfonyl)phenyl)benzamide]",–,–,840,19
"O=C(Nc1cccc(S(=O)(=O)N2CCC(=C3c4ccc(Cl)cc4CCc4cccnc43)CC2)c1)c1cccc([N+](=O)[O-])c1 [1v, N-(3-((4-(8-Chloro-5H-benzo[5,6]cyclohepta[1,2-b]pyridin-11(6H)-ylidene)piperidin-1-yl)sulfonyl)phenyl)-3-nitrobenzamide]",–,–,630,–
"Cc1ccc(S(=O)(=O)Nc2cccc(S(=O)(=O)N3CCC(=C4c5ccc(Cl)cc5CCc5cccnc54)CC3)c2)cc1 [1w, N-(3-((4-(8-Chloro-5H-benzo[5,6]cyclohepta[1,2-b]pyridin-11(6H)-ylidene)piperidin-1-yl)sulfonyl)phenyl)-4-methylbenzenesulfonamide]",–,–,860,30
"O=C(Nc1ccc(S(=O)(=O)N2CCC(=C3c4ccc(Cl)cc4CCc4cccnc43)CC2)cc1)c1cccc(Cl)c1 [1x, 3-Chloro-N-(4-((4-(8-chloro-5H-benzo[5,6]cyclohepta[1,2-b]pyridin-11(6H)-ylidene)piperidin-1-yl)-sulfonyl)phenyl)benzamide]",–,–,> 1000,310
"Cc1ccc(S(=O)(=O)Nc2ccc(S(=O)(=O)N3CCC(=C4c5ccc(Cl)cc5CCc5cccnc54)CC3)cc2)cc1 [1y, N-(4-((4-(8-Chloro-5H-benzo[5,6]cyclohepta[1,2-b]pyridin-11(6H)-ylidene)piperidin-1-yl)sulfonyl)phenyl)-4-methylbenzenesulfonamide]",–,–,920,170

# Continued, values first:
IC50 [1] [nmol/mL],IC50 [2] [nmol/mL],IC50 [3] [nmol/mL],IC50 [4] [nmol/mL],Compound
130,–,–,–,CCC(=O)Nc1ccc(C(=O)N2CCC(=C3c4ccc(Cl)cc4CCc4cccnc43)CC2)cc1 [1a]
330,19,–,–,"O=C(Nc1ccc(C(=O)N2CCC(=C3c4ccc(Cl)cc4CCc4cccnc43)CC2)cc1)c1ccccc1 [1g, N-(4-(4-(8-Chloro-5H-benzo[5,6]cyclohepta[1,2-b]pyridin-11(6H)-ylidene)piperidine-1-carbonyl)phenyl)benzamide]"
–,23,210,–,Cc1ccccc1C(=O)Nc1ccc(C(=O)N2CCC(=C3c4ccc(Cl)cc4CCc4cccnc43)CC2)cc1 [1h]
–,18,220,–,Cc1ccc(C(=O)Nc2ccc(C(=O)N3CCC(=C4c5ccc(Cl)cc5CCc5cccnc54)CC3)cc2)cc1 [1i]
–,–,370,–,"Cc1cccc(C(=O)Nc2ccc(C(=O)N3CCC(=C4c5ccc(Cl)cc5CCc5cccnc54)CC3)cc2)c1 [1j, N-(4-(4-(8-Chloro-5H-benzo[5,6]cyclohepta[1,2-b]pyridin-11(6H)-ylidene)piperidine-1-carbonyl)phenyl)-3-methylbenzamide]"
–,27,490,–,"O=C(Nc1ccc(C(=O)N2CCC(=C3c4ccc(Cl)cc4CCc4cccnc43)CC2)cc1)c1ccccc1Cl [1k, 2-Chloro-N-(4-(4-(8-chloro-5H-benzo[5,6]cyclohepta[1,2-b]pyridin-11(6H)-ylidene)piperidine-1-carbonyl)phenyl)benzamide]"
–,16,560,–,"O=C(Nc1ccc(C(=O)N2CCC(=C3c4ccc(Cl)cc4CCc4cccnc43)CC2)cc1)c1cccc(Cl)c1 [1l, 3-Chloro-N-(4-(4-(8-chloro-5H-benzo[5,6]cyclohepta[1,2-b]pyridin-11(6H)-ylidene)piperidine-1-carbonyl)phenyl)benzamide]"
–,20,170,–,"O=C(Nc1ccc(C(=O)N2CCC(=C3c4ccc(Cl)cc4CCc4cccnc43)CC2)cc1)c1ccccc1F [1m, N-(4-(4-(8-Chloro-5H-benzo[5,6]cyclohepta[1,2-b]pyridin-11(6H)-ylidene)piperidine-1-carbonyl)phenyl)-2-fluorobenzamide]"
–,–,390,–,"COc1cccc(C(=O)Nc2ccc(C(=O)N3CCC(=C4c5ccc(Cl)cc5CCc5cccnc54)CC3)cc2)c1 [1n, N-(4-(4-(8-Chloro-5H-benzo[5,6]cyclohepta[1,2-b]pyridin-11(6H)-ylidene)piperidine-1-carbonyl)phenyl)-3-methoxybenzamide]"
–,18,550,–,"O=C(Nc1ccc(C(=O)N2CCC(=C3c4ccc(Cl)cc4CCc4cccnc43)CC2)cc1)c1cccc([N+](=O)[O-])c1 [1o, N-(4-(4-(8-Chloro-5H-benzo[5,6]cyclohepta[1,2-b]pyridin-11(6H)-ylidene)piperidine-1-carbonyl)phenyl)-3-nitrobenzamide]"
–,52,> 1000,–,"O=C(Nc1ccc(C(=O)N2CCC(=C3c4ccc(Cl)cc4CCc4cccnc43)CC2)cc1)c1ccc([N+](=O)[O-])cc1 [1p, N-(4-(4-(8-Chloro-5H-benzo[5,6]cyclohepta[1,2-b]pyridin-11(6H)-ylidene)piperidine-1-carbonyl)phenyl)-4-nitrobenzamide]"

# From publication PMC6271649, “Synthesis and Biological Evaluation of Substituted Desloratadines as Potent Arginine Vasopressin V2 Receptor Antagonists” (Molecules, 2014)
